Data from patent US20160060285A1, “Aminoglycosides, Methods of Synthesis, and Associated Applications” (UTAH STATE UNIVERSITY, priority 2010, published 2016).
In brackets after ≈: the same amount, converted by molar mass. Where two headings read alike, the source gives them in different places.

Legend:
[1] = test system: Escherichia coli ATCC 25922; assay: Bacterial growth inhibition (MIC) test, microtiter plate, CLSI protocol; format: cell-based; conditions: E. coli 25922, Luria-Bertani medium, 37° C., 24 hours
[2] = test system: Staphylococcus aureus ATCC25923; assay: as above; format: cell-based
[3] = test system: Fusarium graminearum B4-5A; assay: microbe, parasite or virus in culture; format: cell-based
[4] = test system: Candida albicans ATCC64124 (azole-resistant); assay: microbe, parasite or virus in culture; format: cell-based; conditions: for MIC: ATCC64124, 48 h
[5] = test system: azole-resistant Candida albicans ATCC 64124; assay: Antifungal synergism by checkerboard analysis, K-compound and azole combinations; format: cell-based; conditions: for MIC: Candida albicans; for MIC / MIC alone: compound alone; for MIC with K408: MIC of the labelled azole when combined with K408; for MIC with K4608: MIC of the labelled azole when combined with K4608; for FIC Index (K408 with azole): combination of K408 with the labelled azole; for FIC Index (K408 with azole) / FIC Index (K4608 with azole): synergistic if ≦0.5, indifferent if >0.5-4, antagonistic if >4; for FIC Index (K4608 with azole): combination of K4608 with the labelled azole; for MIC alone: K408 checkerboard table; for MIC K408 with azole: MIC of K408 when combined with the labelled azole
[6] = test system: Candida albicans ATCC MYA-2876 (azole sensitive); assay: Fungal MIC and MFC, microbroth dilution assay (M27-A3); format: cell-based; conditions: C. albicans MYA2876 (azole sensitive); for MIC: RPMI 1640, 35° C., 48 hours
[7] = test system: HeLa cells; assay: Cell viability assay (MTT), cytotoxicity test; format: cell-based, human; conditions: for toxicity to human cervical cancer cell line HeLa: 1.0 to 1000 μg/mL; for toxicity to human cervical cancer cell line HeLa / Viable Cells Percentage Compared to Control: 48 h; for Viable Cells Percentage Compared to Control: MTT
Description: HeLa cells were grown in commercial DMEM 1× (Gibco) with 10% fetal bovine serum (FBS, Gibco), 100 U/mL penicillin, and 100 μg/mL streptomycin at 37° C. and 5% CO2. The cells were allowed to adhere for 24 h before drug treatment.
The cells were seeded in 96-well microtiter plates (10,000/200 μL). After 24 h of incubation in the media, cells were treated with various concentrations of K608, K4608 and K408 (0.0, 1.0, 10.0, 100.0, 1000 μg/mL and Trition 1×) for 48 h. 20 μL of MTT stock solution (5 mg/mL) was added to each well and incubated for 4 h at 37° C. Upon completion of incubation, the media was carefully removed and washed twice with […] of pbs buffer. Then, 200 μL of DMSO was added to each well; agitated on orbital shaker for 15 min., and the absorbance at 570 nm with 670 nm filter was determined with a microplate reader (Synergy H4). The results are expressed as viability compared with that of control. The experiment was carried out in triplicate in three independent experiments.

[8] = S. aureus 25923, 37° C., 24 hours
[9] = F. graminearum B4-5A, RPMI 1640, 35° C., 48 hour
[10] = ATCC64124, K408 checkerboard table, first of two separate experiments
[11] = ATCC64124, K408 checkerboard table, second of two separate experiments
[12] = Staphylococcus aureus, ATCC25923, S. aureus 25923, 37° C., 24 hours, read-out: MIC
[13] = Fusarium graminearum, B45A, 48 h
[14] = ATCC64124, K4608 checkerboard table
[15] = first of two separate experiments
[16] = second of two separate experiments

## CCCCCCCCCOC1C(CO)OC(OC2C(N)CC(N)C(OC3OC(CN)C(O)C(O)C3O)C2O)C(O)C1N (stereo not shown) [Compound K409]
[1]
  MIC: >250 mg per L
[2]; [8]
  MIC: >250 mg per L
[3]; [9]
  MIC: 62.5 mg per L

## CCCCOC1C(CO)OC(OC2C(N)CC(N)C(OC3OC(CN)C(O)C(O)C3O)C2O)C(O)C1N (stereo not shown) [Compound K404]
[2]; [8]
  MIC: 4-16 mg per L
[3]; [9]
  MIC: >500 mg per L

## CCCCCCCCCCCCCCOC1C(CO)OC(OC2C(N)CC(N)C(OC3OC(CN)C(O)C(O)C3O)C2O)C(O)C1N (stereo not shown) [Compound K414]
[1]
  MIC: >250 mg per L
[2]; [8]
  MIC: >250 mg per L
[3]; [9]
  MIC: >500 mg per L

## CCCCCCCCOC1[C@@H](N)[C@@H](O)C(O[C@@H]2C(N)CC(N)C(O[C@H]3OC(CN)[C@@H](O)[C@H](O)C3O)[C@@H]2O)O[C@@H]1CO (stereo partly shown) [Compound K408]
[4]; ATCC64124
  MFC: 9.8 µg/mL (≈ 16.4 µM)
[4]
  MIC: 9.8 µg/mL (≈ 16.4 µM)
[5]; [10]
  MIC: 31.2 µg/mL
[5]; [11]
  MIC: 31.2 µg/mL
[6]
  MIC: 1.2 µg/mL (≈ 2.01 µM)
[6]; subculture on Sabouraud dextrose agar after MIC test
  MFC: 2.4 µg/mL (≈ 4.02 µM)
[2]; [12]
  MIC: 125 µg/mL (≈ 209 µM)
[3]; [13]
  MIC: 31.3 µg/mL (≈ 52.5 µM)
[7]
  toxicity to human cervical cancer cell line HeLa: not toxic
[7]; HeLa, 1 μg/mL
  Viable Cells Percentage Compared to Control: 139.37%
[7]; HeLa, 10 μg/mL
  Viable Cells Percentage Compared to Control: 156.92%
[7]; HeLa, 100 μg/mL
  Viable Cells Percentage Compared to Control: 144.82%
[7]; HeLa, 1000 μg/mL
  Viable Cells Percentage Compared to Control: 138.39%
[7]; HeLa, wells treated with compound
  effect on growth of cells (number of viable cells): promoted growth of cells

## CCC(C)n1ncn(-c2ccc(N3CCN(c4ccc(OCC5COC(Cn6cncn6)(c6ccc(Cl)cc6Cl)O5)cc4)CC3)cc2)c1=O (stereo not shown) [itraconazole]
[5]; [10]
  MIC: 250 µg/mL
[5]; [11]
  MIC: 250 µg/mL
[5]; [14]
  MIC: > 250 µg/mL
[5]; [15]
  MIC with K408: 0.98, 0.98 mg L^−1
  FIC Index (K408 with azole): 0.25, 0.25
[5]; [16]
  MIC with K408: 0.98, 0.98 mg L^−1
  FIC Index (K408 with azole): 0.25, 0.25
[5]; one experiment
  MIC with K4608: 3.91 µg/mL
  FIC Index (K4608 with azole): <0.52

## CCCCCCOC1C(CO)OC(OC2C(N)CC(N)C(OC3OC(CN)C(O)C(O)C3O)C2O)C(O)C1N (stereo not shown) [Compound K406]
[1]
  MIC: >250 mg per L
[2]; [8]
  MIC: 8-64 mg per L
[3]; [9]
  MIC: >500 mg per L

## OC(Cn1cncn1)(Cn1cncn1)c1ccc(F)cc1F [fluconazole]
[5]; [10]
  MIC: 250 µg/mL
[5]; [11]
  MIC: 250 µg/mL
[5]; [14]
  MIC: > 250 µg/mL
[5]; [15]
  MIC with K408: 15.63, 15.63 mg L^−1
  FIC Index (K408 with azole): 0.31, 0.31
[5]; [16]
  MIC with K408: 15.63, 15.63 mg L^−1
  FIC Index (K408 with azole): 0.31, 0.31
[5]; one experiment
  MIC with K4608: 31.25 µg/mL
  FIC Index (K4608 with azole): 0.25

## CCCCCCCOCC1OC(OC2C(N)CC(N)C(OC3OC(CN)C(O)C(O)C3O)C2O)C(O)C(N)C1OCCCCCCC (stereo not shown) [Compound K4607]
[1]
  MIC: 125 mg per L
[2]; [8]
  MIC: 8-125 mg per L
[3]; [9]
  MIC: 15.6 mg per L

## CCCCCCCCCCCCCCOCC1OC(OC2C(N)CC(N)C(OC3OC(CN)C(O)C(O)C3O)C2O)C(O)C(N)C1OCCCCCCCCCCCCCC (stereo not shown) [Compound K4614]
[1]
  MIC: >250 mg per L
[2]; [8]
  MIC: >250 mg per L
[3]; [9]
  MIC: >500 mg per L

## CCCCCCCCCCOCC1OC(OC2C(N)CC(N)C(OC3OC(CN)C(O)C(O)C3O)C2O)C(O)C(N)C1OCCCCCCCCCC (stereo not shown) [Compound K4610]
[1]
  MIC: 125 mg per L
[2]; [8]
  MIC: 16 mg per L
[3]; [9]
  MIC: >500 mg per L

## CCCCCCCOC1C(CO)OC(OC2C(N)CC(N)C(OC3OC(CN)C(O)C(O)C3O)C2O)C(O)C1N (stereo not shown) [Compound K407]
[1]
  MIC: >250 mg per L
[2]
  MIC: 125 mg per L
[3]; [9]
  MIC: 125 mg per L

## CCCCOCC1OC(OC2C(N)CC(N)C(OC3OC(CN)C(O)C(O)C3O)C2O)C(O)C(N)C1OCCCC (stereo not shown) [Compound K4604]
[1]
  MIC: >250 mg per L
[2]; [8]
  MIC: >250 mg per L
[3]; [9]
  MIC: 125 mg per L

## CCCCCCCCCCCCOC1C(CO)OC(OC2C(N)CC(N)C(OC3OC(CN)C(O)C(O)C3O)C2O)C(O)C1N (stereo not shown) [Compound K412]
[1]
  MIC: 125-250 mg per L
[2]; [8]
  MIC: 64 mg per L
[3]; [9]
  MIC: >500 mg per L

## CCCCCCCCCOCC1OC(OC2C(N)CC(N)C(OC3OC(CN)C(O)C(O)C3O)C2O)C(O)C(N)C1OCCCCCCCCC (stereo not shown) [Compound K4609]
[1]
  MIC: 16 mg per L
[2]; [8]
  MIC: 8 mg per L
[3]; [9]
  MIC: 125 mg per L

## CCCCCCCCCCCCOCC1OC(OC2C(N)CC(N)C(OC3OC(CN)C(O)C(O)C3O)C2O)C(O)C(N)C1OCCCCCCCCCCCC (stereo not shown) [Compound K4612]
[1]
  MIC: >250 mg per L
[2]; [8]
  MIC: 64 mg per L
[3]; [9]
  MIC: >500 mg per L

## CC[C@@H]([C@H](C)O)n1ncn(-c2ccc(N3CCN(c4ccc(OC[C@@H]5CO[C@@](Cn6cncn6)(c6ccc(F)cc6F)C5)cc4)CC3)cc2)c1=O [posaconazole]
[5]; [10]
  MIC: 62.5 µg/mL
[5]; [11]
  MIC: 250 µg/mL
[5]; [15]
  MIC with K408: 0.24, 0.24 mg L^−1
  FIC Index (K408 with azole): 0.38
[5]; [16]
  MIC with K408: 0.24, 0.24 mg L^−1
  FIC Index (K408 with azole): 0.07
[5]; one experiment
  MIC with K4608: 0.49 µg/mL
  FIC Index (K4608 with azole): <0.13

## CCCCCCCCCCOC1C(CO)OC(OC2C(N)CC(N)C(OC3OC(CN)C(O)C(O)C3O)C2O)C(O)C1N (stereo not shown) [Compound K410]
[1]
  MIC: >250 mg per L
[2]; [8]
  MIC: 125 mg per L
[3]; [9]
  MIC: 62.5 mg per L

## CCCCCCCCOC[C@H]1OC(O[C@@H]2C(N)CC(N)C(O[C@H]3OC(CN)[C@@H](O)[C@H](O)C3O)[C@@H]2O)[C@H](O)[C@H](N)C1O (stereo partly shown) [Compound K608]
[7]
  toxicity to human cervical cancer cell line HeLa: not toxic
[7]; HeLa, 1 μg/mL
  Viable Cells Percentage Compared to Control: 79.47%
[7]; HeLa, 10 μg/mL
  Viable Cells Percentage Compared to Control: 107.9%
[7]; HeLa, 100 μg/mL
  Viable Cells Percentage Compared to Control: 75.36%
[7]; HeLa, 1000 μg/mL
  Viable Cells Percentage Compared to Control: 86.49%
[7]; HeLa, at all concentration
  cell viability: ~80%

## Clc1ccccc1C(c1ccccc1)(c1ccccc1)n1ccnc1 [chlotrimazole]
[5]; [15]
  MIC alone: 3.91 µg/mL
  MIC K408 with azole: 3.91 µg/mL
  MIC with K408: 0.24 mg/L
  FIC Index (K408 with azole): 0.37
[5]; [16]
  MIC alone: 7.81 µg/mL
  MIC K408 with azole: 1.95 µg/mL
  MIC with K408: 0.49 mg/L
  FIC Index (K408 with azole): 0.13
[5]; MIC of K4608 when combined with the labelled azole, one experiment
  MIC K4608 with azole: 1.95 µg/mL
[5]; one experiment
  MIC with K4608: 3.91 µg/mL
  FIC Index (K4608 with azole): 0.19

## C[C@@H](c1ncncc1F)[C@](O)(Cn1cncn1)c1ccc(F)cc1F [voriconazole]
[5]; [10]
  MIC: 7.81 µg/mL
[5]; [11]
  MIC: 7.81 µg/mL
[5]; [14]
  MIC: 7.81 µg/mL
[5]; [15]
  MIC with K408: 1.95 mg/L
  FIC Index (K408 with azole): 0.38, 0.38
[5]; [16]
  MIC with K408: 0.81 mg/L
  FIC Index (K408 with azole): 0.38, 0.38
[5]; one experiment
  MIC with K4608: 0.98 µg/mL
  FIC Index (K4608 with azole): 0.19

## CCCCCCOCC1OC(OC2C(N)CC(N)C(OC3OC(CN)C(O)C(O)C3O)C2O)C(O)C(N)C1OCCCCCC (stereo not shown) [Compound K4606]
[1]
  MIC: >250 mg per L
[2]; [8]
  MIC: 32-125 mg per L
[3]; [9]
  MIC: 3.9 mg per L

## NC[C@H]1O[C@H](O[C@H]2[C@H](O)[C@@H](O[C@H]3O[C@H](CO)[C@@H](O)[C@H](N)[C@H]3O)[C@H](N)C[C@@H]2N)[C@H](O)[C@@H](O)[C@@H]1O [Kanamycin, reference compound]
[4]
  MIC: > 500 µg/mL
[1]; Escherichia coli, ATCC25922, read-out: MIC
  MIC: 1 to 4 µg/mL (≈ 2.06 to 8.26 µM)
[6]
  MIC: 250 to 500 µg/mL (≈ 516 to 1030 µM)
[2]; [12]
  MIC: 0.5 to 1 µg/mL (≈ 1.03 to 2.06 µM)
[3]; [13]
  MIC: > 500 µg/mL
